A word on the EC50: it is the midpoint of the concentration-response curve. The IC50 is the midpoint of a concentration-inhibition curve.

Active and inactive are the calls of the source.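 Rule for the calls: active = compounds giving half or more protection of infected cells from virus-caused growth loss, again on retest; inactive = the rest.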

The test system of the experiment is CEM cells HIV-1 protection, formazan growth assay. As to the kind of experiment: NCI AIDS Antiviral Assay. As to conditions: for IC50: measured here: growth of uninfected CEM cells. In short, it runs like this:
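Screen of anti-HIV-1 activity in human CEM cells using a formazan-based growth measurement at five drug concentrations. Hits with 50% or greater protection were repeated, and confirmation required reproducible complete protection.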

Regarding `CCC[CH2][Sn]1([CH2]CCC)[N](S(=O)(=O)c2ccc(C)cc2)c2ccccc2[N]1S(=O)(=O)c1ccc(C)cc1`, the EC50 was more than 2 µM and the IC50 is 0.309 µM.

Regarding `CCC1(CC)C(=O)N(C(=O)c2ccccc2)N(C(=O)c2ccc(Cl)cc2)C1=O`, the EC50 was more than 200 µM and the half-inhibitory concentration (IC50) came out at 50.1 µM.

Consider `C[N+]1(C)CCCC1C(=O)[O-]` (configuration not stated), for which the EC50 is more than 1740 µM and the IC50 was more than 1740 µM.

As for `O=C1OC(=O)c2ccc3c4c(ccc1c24)C(=O)OC3=O`, the EC50 was more than 933 µM and the 50% inhibitory concentration (IC50) was more than 933 µM.

As to `CC(C)N1C(=O)NC2C1NC(=O)N2C(C)C` (configuration not stated) (tested in a mixture with another compound), the EC50 was more than 200 µM and the IC50 is more than 200 µM.

Regarding `O=C(O)C1(C(=O)O)CC2C3C=CC(C3)C2C1` (configuration not stated), the EC50 is more than 398 µM and the IC50 was more than 398 µM.

Consider `Cc1cccc(NC(=O)C(=O)C2C(=O)NC(=O)NC2=O)c1C`, for which the EC50 was more than 832 µM and the 50% inhibitory concentration (IC50) was determined as 794 µM.

For the compound `NNC(=O)c1nnn(CCc2ccccc2)c1C(=O)NN`, the EC50 was more than 200 µM and the IC50 is more than 200 µM.

Turning to `CN(C)CCC(O)(Cc1ccccc1)c1ccco1` (configuration not stated), the EC50 is more than 200 µM and the half-inhibitory concentration (IC50) turned out to be 34.7 µM.

`CC(=O)c1c2c(cc3c1CC1(Cc4ccccc4C1=O)C3)CCC2` (configuration not stated): the EC50 was more than 200 µM and the concentration for half-maximal inhibition (IC50) was 17.8 µM.

In the case of `Cc1cc(O)c(C=NC(=S)c2ccccc2)c(=O)o1`, the EC50 is more than 200 µM and the half-maximal inhibitory concentration (IC50) was more than 200 µM.

Regarding `COc1cc(C(C2=C(O)c3ccccc3C(=O)C2=O)C2=C(O)c3ccccc3C(=O)C2=O)cc(Br)c1O`, the EC50 is more than 200 µM and the IC50 was found to be 32.4 µM.

On to `Cn1c(=O)c2nc(-c3ccc(Cl)cc3)oc2n(C)c1=O`, for which the EC50 is more than 9.33 µM and the concentration for half-maximal inhibition (IC50) is more than 9.33 µM.

Regarding `COc1ccccc1NC(=S)N/N=C(/C)c1ccccn1`, the EC50 was more than 0.2 µM and the half-inhibitory concentration (IC50) is 0.0339 µM.

In the case of `CSc1cc(-c2ccc(Cl)cc2)s[s+]1`, the concentration giving a half-maximal response (EC50) is 50.1 µM and the concentration for half-maximal inhibition (IC50) is 115 µM.

Regarding `O=[N+]([O-])c1ccc(C2=Cc3ccc4ccccc4[n+]3NC2)cc1`, the EC50 was more than 50.1 µM and the IC50 was more than 50.1 µM.

Regarding `CN(C)c1ccc(/C=N/NS(=O)(=O)c2ccc(N)cc2)cc1`, the EC50 is more than 214 µM and the concentration for half-maximal inhibition (IC50) was more than 214 µM.

With `COC1(C)C(=O)N2C1N(C(=O)OCc1ccccc1)CC2(C)C` (configuration not stated), the EC50 was more than 251 µM and the IC50 is more than 251 µM.

With `COc1ccc(/C=C2\CCc3cc(OC)c(OC)cc3C2=O)cc1`, the outcome was inactive.

`[O]=[Sb][c]1ccc(Cl)cc1`: the EC50 is more than 200 µM and the half-maximal inhibitory concentration (IC50) was 2.63 µM.

Turning to `CC(O)(CCCCCl)c1nc2ccccc2s1` (configuration not stated), the EC50 was more than 200 µM and the IC50 worked out at 60.3 µM.

Consider `CCOC(=O)C/C(O)=C(/C=N/C(=S)NNC(C)=O)C(=O)OCC`, for which the EC50 is more than 200 µM and the IC50 is more than 200 µM.

For the compound `C/C(=N\O)c1ccc(OCc2cc(C(F)(F)F)cc(C(F)(F)F)c2)cc1`, the EC50 was more than 200 µM and the IC50 came out at 40.7 µM.

For `Cn1c(=O)cc(N2CCCC2)[nH]c1=O`, the EC50 is more than 200 µM and the IC50 is more than 200 µM.

As to `COc1cc2c(cc1OC)C1Cc3ccccc3CN1CCC2` (configuration not stated), the EC50 was more than 200 µM and the 50% inhibitory concentration (IC50) worked out at 141 µM.

For the compound `C/C(=N\NC(=O)/C(C#N)=C\c1ccc(N(CCC#N)CCC#N)cc1)c1ccccc1`, the outcome was inactive.

For the compound `CCCCCCC=C(c1cc(Cl)c(OC)c(C(=O)OC)c1)c1cc(Cl)c(OC)c(C(=O)OC)c1`, the EC50 was more than 5.37 µM and the half-maximal inhibitory concentration (IC50) was more than 5.37 µM.

For `CCOC(=O)Nc1nc2c([N+](=O)[O-])c(Br)n(C)c2s1`, the outcome was inactive.

As for `COC(=O)CCCC=C(c1cc(C)c(OC)c(C(=O)OC)c1)c1cc(C)c(OC)c(C(=O)OC)c1`, the EC50 was 2.4 µM and the IC50 was 89.1 µM.

For `CN(C)CC(=O)N1CCc2c([nH]c3ccccc23)C1c1cccnc1` (configuration not stated), the EC50 was more than 107 µM and the IC50 was more than 107 µM.

As to `COc1c(CC(C)=O)ccc2c1C(=O)c1ccc(C=O)c(OC(C)=O)c1C2=O`, the outcome was inactive.

Turning to `CCOP(=O)(OCC)/C(C#N)=C/c1ccc[nH]1`, the EC50 is more than 977 µM and the IC50 is 575 µM.

Regarding `COc1ccc(-c2csc3c2-n2cccc2C3=O)cc1`, the EC50 was more than 2 µM and the IC50 was found to be 0.0363 µM.

As for `C=C(C)COC(=O)COCC(=O)OCC(=C)C`, the EC50 is more than 200 µM and the 50% inhibitory concentration (IC50) was more than 200 µM.

As for `O=c1c(-c2ccccc2)c2n(c3ccccc13)CCN2`, the EC50 is more than 200 µM and the IC50 was more than 200 µM.

With `OCCN1CCOC(O)(c2cccc(C(F)(F)F)c2)C1` (configuration not stated), the EC50 is more than 200 µM and the half-maximal inhibitory concentration (IC50) is 115 µM.

With `c1ccc([CH2][Sn]([CH2]c2ccccc2)([O]c2cccc3cccnc23)[O]c2cccc3cccnc23)cc1`, the outcome was inactive.

Turning to `CC1OC(=O)N(CCCC=C2SCCCS2)C1=O` (configuration not stated), the outcome was inactive.

For the compound `Cc1nc2c(ccc3c(C)c(C)c(C)nc32)c(C)c1C.Cc1nc2c(ccc3c(C)c(C)c(C)nc32)c(C)c1C.O=C1OC(C(O)C[O-])C(O)=C1O.[Cu+]`, the EC50 is more than 12.6 µM and the IC50 came out at 0.692 µM.

On to `NC(=S)NCC12CC3CC(CC(C3)C1)C2`, for which the outcome was inactive.

Take `CCn1c(C)nc2c(N)cccc2c1=O`: the EC50 was more than 1230 µM and the IC50 is more than 1230 µM.

Turning to `Cc1ccc(S(=O)(=O)/C(C#N)=C/n2ccc(=O)[nH]c2=S)cc1`, the EC50 was more than 200 µM and the IC50 is more than 200 µM.

For the compound `O=C1c2ccccc2CC12Cc1ccc3c(c1C2=O)CCCC3` (configuration not stated), the EC50 is more than 200 µM and the IC50 was more than 200 µM.

Regarding `O=C(c1ccccc1)C1N=NN(Cc2ccccc2[N+](=O)[O-])C1C(=O)c1ccccc1` (configuration not stated), the EC50 was more than 4.79 µM and the IC50 is more than 4.79 µM.

In the case of `CCCCOC(=O)C1CC2OC2CC1C(=O)OCCOCCOC(=O)C1CC2OC2CC1C(=O)OCCCC` (configuration not stated), the EC50 was more than 200 µM and the half-maximal inhibitory concentration (IC50) was found to be 51.3 µM.

`Nc1cc(Cl)cc2cc(Cl)cnc12`: the EC50 was more than 200 µM and the 50% inhibitory concentration (IC50) stood at 117 µM.

Take `CC=C=C(C)CN`: the EC50 is more than 447 µM and the 50% inhibitory concentration (IC50) is more than 447 µM.

With `O=C1c2c(c3c4ccccc4[nH]c3c3[nH]c4ccccc4c23)C(=O)N1Cc1ccccc1`, the EC50 is more than 148 µM and the 50% inhibitory concentration (IC50) worked out at 10.2 µM.

Consider `NC(=O)NNC(=O)CCn1[nH]c(=O)c(Cl)c(Cl)c1=O`, for which the result was inactive.

On to `COC1=CC(=O)c2cc(C)cc(-c3cc4ccc(=O)oc4cc3OC)c2C1=O`, for which the outcome was inactive.

For `NC(=S)N/N=C/c1c(O)c2cc(Cl)ccc2[nH]c1=O`, the EC50 is more than 200 µM and the half-maximal inhibitory concentration (IC50) was 93.3 µM.

Take `O=C1c2ccccc2C(=O)c2cc3c(cc21)CS(=O)C3`: the result was inactive.

Turning to `COC(=O)[C@@H]1OC(C)(c2ccccc2)O[C@H]1C(=O)OC`, the EC50 was more than 200 µM and the IC50 is more than 200 µM.

In the case of `CCC[CH2][Sn]1([CH2]CCC)[O]C(c2ccccn2)S(=O)(=O)[O]1` (configuration not stated), the EC50 was more than 30.9 µM and the IC50 turned out to be 0.178 µM.

As to `CC[N+]1(C)CSC(=S)N(C)C1` (configuration not stated), the EC50 was more than 200 µM and the half-inhibitory concentration (IC50) turned out to be 75.9 µM.

In the case of `O=C(c1ccc(Cl)cc1Cl)C1[C@H]2C(=O)N(c3ccc(Cc4ccc(N5C(=O)[C@@H]6ON(c7ccccc7)C(C(=O)c7ccc(Cl)cc7Cl)[C@@H]6C5=O)cc4)cc3)C(=O)[C@H]2ON1c1ccccc1` (some centres not stated), the EC50 is more than 38 µM and the IC50 was more than 38 µM.

On to `COc1ccccc1Nc1nc(NNC(=O)Cc2ccccc2)nc(NNC(=O)c2ccncc2)n1`, for which the EC50 is more than 50.1 µM and the half-inhibitory concentration (IC50) was more than 50.1 µM.

Take `CC1(c2ccccc2)Sc2ccccc2-n2cccc2C1=O` (configuration not stated): the EC50 was 1.05 µM and the IC50 turned out to be 3.8 µM.

On to `CC(=O)Nc1ccc(S(=O)(=O)c2ccc(NC(C)=O)cc2)cc1`, for which the EC50 is more than 200 µM and the IC50 was more than 200 µM.

For the compound `CCOC(=O)/C(=C\c1cccc(C)c1)C(C)=O`, the EC50 is more than 407 µM and the IC50 turned out to be 63.1 µM.

As to `C[N+]1([O-])CCOCC1`, the EC50 was more than 200 µM and the IC50 was more than 200 µM.

For `CCOP(=O)(OCC)/C(C#N)=C\c1cccc2ccccc12`, the EC50 was more than 83.2 µM and the half-inhibitory concentration (IC50) was more than 83.2 µM.

Take `O=C(Nc1ccc(C(=O)O)c(O)c1)c1ccc(C(=O)Nc2ccc(C(=O)O)c(O)c2)cc1`: the EC50 was more than 200 µM and the half-inhibitory concentration (IC50) was determined as 89.1 µM.

On to `CCSSC12CCCN1C(=O)C(C)N(C)C2=O` (configuration not stated), for which the EC50 is more than 200 µM and the IC50 came out at 20.4 µM.

Take `CN1CCOC(c2ccccc2)O1` (configuration not stated): the EC50 was more than 251 µM and the half-maximal inhibitory concentration (IC50) was more than 251 µM.

Regarding `CCN(CC)CCOc1ccc(/C(C#N)=C/c2ccc(OCCO)cc2)cc1`, the EC50 was more than 200 µM and the IC50 worked out at 20.9 µM.

As to `CCCCCCCC/C=C\CCCCCCCC(=O)N(C)N(C)C(=O)CCCCCCC/C=C/CCCCCCCC`, the EC50 is more than 200 µM and the IC50 was more than 200 µM.

Regarding `COc1ccccc1NC(=O)CC(=O)N1N=C(c2ccccc2)C(N=Nc2ccc(Cl)cc2)C1=O` (configuration not stated), the EC50 is more than 74.1 µM and the IC50 was 64.6 µM.

In the case of `O=C1C(=O)c2ccccc2C(O)=C1CCCc1ccc(Oc2ccccc2)cc1`, the outcome was inactive.

Consider `NS(=O)(=O)c1ccc(Nc2c3ccccc3nc3c(C(=O)N4CCN(CCO)CC4)cccc23)cc1`, for which the EC50 is more than 43.7 µM and the IC50 is more than 43.7 µM.

On to `O=S1(=O)C[C@H](NCc2ccccc2)[C@H](NCc2ccccc2)C1`, for which the EC50 is more than 200 µM and the IC50 was determined as 107 µM.

With `Oc1ccc(-c2nc(-c3cccnc3)c(-c3ccc(F)cc3)[nH]2)cc1`, the EC50 was more than 200 µM and the IC50 is 30.9 µM.

With `C=C1C2CC[C@@H]3C(C2)(C(=O)C(O)[C@@H]2C(C)(C)[C@@H]4CC(=O)C32CO4)C1OC(C)=O` (some centres not stated), the EC50 was more than 646 µM and the IC50 was determined as 8.13 µM.

For the compound `CC(=O)Oc1ccccc1C(=O)O`, the EC50 was more than 380 µM and the half-maximal inhibitory concentration (IC50) was more than 380 µM.
